Data set [1] deals with osteoblastic cell line MC3T3-E1. The data set is described as follows: Alkaline phosphatase activity in MC3T3-E1 after introduction of antisense or sense DNA to NQO2 mRNA. It is filed as cell-based, mouse. As to conditions: MC3T3-E1, S-oligo DNA with FuGene 6, four days incubation, corrected for protein. On the procedure:
The alkaline phosphatase activity is represented by a relative activity (%) by taking a control value (with no DNA) as 100.
The mouse osteoblastic cell line, MC3T3-E1, in a MEMα medium containing 10% fetal calf serum and 100 μg/ml of kanamycin was inoculated on a 48-well plate at 1.4×10^4 cells per well and cultured overnight. To 100 μl of a serum-free αMEM were added 3 μl of FuGene 6 (Roche), 1.5 μg of the S-oligo DNA having the sequence of SEQ ID NO: 7 (antisense sequence to mouse NQO2 mRNA) and 1.5 μg of the S-oligo DNA having the sequence of SEQ ID NO: 8 (sense sequence to the mRNA) and the mixture was allowed to stand at room temperature for 15 minutes. To each well was added 22 μl of the mixture and incubated under 5% CO2 at 37° C. overnight. Thereafter, ascorbic acid was added at a final concentration of 50 μg/ml, and 10 mM of β-glycerophosphate was added. Incubation was performed for four days, and the activity of the alkaline phosphatase was measured according to Notoya et al. (Journal of Bone and Mineral Research 9: 395-400, 1994). The concentration of the protein in each cell homogenate was measured, and the activity values were corrected and shown in FIG. 1 by taking the activity obtained by the same procedure without addition of the DNA as 100%.

Data set [2] has as its target T1, NQO2 (Mus musculus, UniProt Q9JI75).
T1 construct: made in house; host or cells: E. coli DH5α carrying pGEX-4T-2 with the insert
T1 sequence (Q9JI75 1-231): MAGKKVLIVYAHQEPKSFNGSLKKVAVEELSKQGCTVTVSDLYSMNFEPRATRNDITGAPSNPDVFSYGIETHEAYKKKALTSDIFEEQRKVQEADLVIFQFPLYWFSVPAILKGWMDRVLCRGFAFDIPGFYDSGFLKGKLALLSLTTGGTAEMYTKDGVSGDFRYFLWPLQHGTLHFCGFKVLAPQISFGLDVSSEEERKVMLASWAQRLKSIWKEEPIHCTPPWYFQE
The data set is described as follows: Effect of compound on NQO2 activity (reduction of methyl red by GST-NQO2 fusion protein, absorbance at 436 nm). Type of data set: biochemical. As to conditions: 1 μM compound; 10 nM fusion protein, 30 μM methyl red, 25° C., pH 7.4; read-out: inhibitory action on NQO2 activity. On the procedure: Entire RNA was prepared from a mouse osteoblastic cell line, MC3T3-E1, and cDNA was synthesized by using the oligo-dT primer. PCR was performed by using the cDNA as a template and two synthetic DNAs having the nucleotide sequences of SEQ ID NO: 5 and SEQ ID NO: 6, respectively, as primers to add the sequences recognized-by restriction enzymes. The resulting DNA fragment was cleaved with restriction enzymes BamHI and SalI and inserted into the BamHI-SalI cleavage site of plasmid pGEX-4T-2 (Amersham Pharmacia Biotech). The nucleotide sequence was confirmed, and then E. coli DH5α (GIBCO BRL) carrying the plasmid was cultured in an LB medium. According to the protocol recommended by Amersham Pharmacia Biotech, expression was induced by IPTG, and then purification was performed by using Glutathione-Sepharose (Amersham Pharmacia Biotech). From 2 L of the LB medium, 3.0 mg of the fusion protein was obtained.
Compound A having an osteogenesis-promoting action was examined for effects on the NQO2 activity by using the fusion protein obtained in the above (1). […] The decrease in absorbance at 436 nm was monitored to detect the reduction of methyl red. […]

In data set [3] the test system is osteoblasts. The experiment in a line: Alkaline phosphatase induction in the test using osteoblasts. The note with it: concentration of 1 μM. Type of data set: cell-based.

Take “sense sequence DNA: S-oligo DNA having the sequence of SEQ ID NO: 8 (sense sequence to the mRNA) (sense TATCTCCTCCAACATGGCAG; DNA, all phosphorothioate, methylation of C not given here) [reference compound]”: the “alkaline phosphatase activity relative to cells without introduction of DNA (100%)” value in data set [1] was “no difference was observed”.
With `O=C1NC(=O)C(Cc2ccc(NC(=O)C3=CC(=O)C4C(O)=CC=CC4O3)cc2)S1` (stereo not shown) [Compound A], the inhibition at 1 µM in data set [2] amounted to 38%. Moreover, the alkaline phosphatase-inducing action entry in data set [3] was “alkaline phosphatase-inducing action”.
In the case of “antisense DNA: S-oligo DNA having the sequence of SEQ ID NO: 7 (antisense sequence to mouse NQO2 mRNA) (antisense CTGCCATGTTGGAGGAGATA; DNA, all phosphorothioate, methylation of C not given here)”, the “alkaline phosphatase activity relative to cells without introduction of DNA (100%)” value in data set [1] is given as “significantly higher”.
